According to ChEMBL document CHEMBL1201862, “PubChem BioAssay data set” (2004):
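Protocol summary: plate cells (96-well), add compound at 5 concentrations, incubate 48 h, interpolate endpoints linearly. Here, GI50 denotes the concentration required for 50% inhibition of growth.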 Active and inactive are the calls of the source. Rule as the data show it: active = GI50 up to about 1.1 µM and inactive = higher.

Legend:
Assay in all cases: DTP human tumour cell line panel, 48 h
DLD-1 = system: DLD-1
DMS-114 = system: DMS-114
DMS-273 = system: DMS-273
LXFL 529 = system: LXFL 529
M19-MEL = system: M19-MEL
RXF 631 = system: RXF 631
XF498 = system: XF498
HOP-18 = system: HOP-18

Measured: GI50

Cc1cc(C)c(C(=O)O)c(SSc2cc(C)cc(C)c2C(=O)O)c1
inactive: DLD-1 > 100 µM | DMS-114 > 100 µM | DMS-273 > 100 µM | LXFL 529 > 100 µM | M19-MEL > 100 µM | RXF 631 > 100 µM | XF498 > 100 µM

CC1(OCc2ccccc2)C(=O)N2C1NCC2(C)C (stereo not drawn)
inactive: DLD-1 > 100 µM | DMS-114 > 100 µM | DMS-273 > 100 µM | LXFL 529 > 100 µM | M19-MEL > 100 µM | RXF 631 > 100 µM | XF498 > 100 µM

C/C(CN1C(=O)c2ccccc2C1=O)=N\NS(=O)(=O)c1cccc(C(=O)O)c1
inactive: DLD-1 > 100 µM | DMS-114 > 100 µM | DMS-273 > 100 µM | HOP-18 > 100 µM | LXFL 529 > 100 µM | M19-MEL > 100 µM | RXF 631 > 100 µM | XF498 > 100 µM

CCc1cccc(C(C)C)c1NC(=O)C(=O)CC(=O)c1c(C)[n+]([O-])c2ccccc2[n+]1[O-]
inactive: DLD-1 > 100 µM | DMS-114 > 100 µM | LXFL 529 > 100 µM | M19-MEL > 100 µM | RXF 631 > 100 µM | XF498 > 100 µM

O=c1[nH]c(=O)n(C2CC(O)C(CO)O2)cc1OS(=O)(=O)C(F)(F)F (stereo not drawn)
active: XF498 < 0.01 µM
inactive: DLD-1 > 100 µM | DMS-114 > 100 µM | DMS-273 > 100 µM | HOP-18 > 100 µM | LXFL 529 > 100 µM | M19-MEL > 100 µM | RXF 631 > 100 µM

CO[C@@]1(c2ccccc2)O[C@H]2OCCC2[C@H]1c1ccc(Cl)cc1 (stereo partly drawn)
inactive: DLD-1 37.7 µM | DMS-114 31.8 µM | DMS-273 39.5 µM | HOP-18 22.9 µM | LXFL 529 27.9 µM | RXF 631 29.4 µM | XF498 25 µM
